Measured values published in patent publication US6410530B1, “Substituted 1,2,3,4-tetrahydronaphthalene derivatives” (AstraZeneca AB, priority 1996, dated 2002).

**Q.** For `CC(=O)N[C@@H]1CCc2cccc(N3CCN(C)CC3)c2C1`, which melting point is on record?
**A.** 152 to 154 °C

**Q.** Which melting point does the source give for `CCN1CCN(c2cccc3c2C[C@H](NC(C)=O)CC3)CC1` here?
**A.** 142 to 143 °C

**Q.** With `CN1CCN(c2cccc3c2C[C@H](NC(=O)C(F)(F)F)CC3)CC1` as the molecule, how does the melting point read?
**A.** 158 to 159 °C

**Q.** For `CN1CCN(c2cccc3c2C[C@H](NS(C)(=O)=O)CC3)CC1`, which melting point is on record?
**A.** 135 to 137 °C

**Q.** Which melting point does the source give for `CCCC(=O)N[C@@H]1CCc2cccc(N3CCN(C)CC3)c2C1` here?
**A.** 131 to 132 °C

**Q.** With `CCCN1CCN(c2cccc3c2C[C@H](NC(C)=O)CC3)CC1` [Example 24, (R)-N-[8-(4-Propylpiperazin-1-yl)-1,2,3,4-tetrahydro-2-naphthyl]acetamide] as the molecule, how does the melting point read?
**A.** 139 to 140 °C

**Q.** For `CCCCN1CCN(c2cccc3c2C[C@H](NC(C)=O)CC3)CC1` [Example 27, (R)-N-[8-(4-Butylpiperazin-1-yl)-1,2,3,4-tetrahydro-2-naphthyl]acetamide], which melting point is on record?
**A.** 118 to 120 °C

**Q.** For `CCCCCN1CCN(c2cccc3c2C[C@H](NC(C)=O)CC3)CC1` [Example 30, (R)-N-[8-(4-Pentylpiperazin-1-yl)-1,2,3,4-tetrahydro-2-naphthyl]acetamide], which melting point is on record?
**A.** 119 to 120 °C

**Q.** For `CCCCCCN1CCN(c2cccc3c2C[C@H](NC(C)=O)CC3)CC1` [Example 33, (R)-N-[8-(4-Hexylpiperazin-1-yl)-1,2,3,4-tetrahydro-2-naphthyl]acetamide], which melting point is on record?
**A.** 117 to 118 °C

**Q.** With `CN1CCN(c2cccc3c2C[C@H](NC(=O)C2CCCCC2)CC3)CC1` [Example 36, (R)-N-[8-(4-Methylpiperazin-1-yl)-1,2,3,4-tetrahydro-2-naphthyl]cyclohexanecarboxamide] as the molecule, how does the melting point read?
**A.** 183 to 184 °C

**Q.** With `CN1CCN(c2cccc3c2C[C@H](NC(=O)c2ccc(-c4ccccc4)cc2)CC3)CC1` [Example 44, (R)-N-[8-(4-Methylpiperazin-1-yl)-1,2,3,4-tetrahydro-2-naphthyl]-1,1′-biphenyl-4-carboxamide] as the molecule, how does the melting point read?
**A.** 232 to 233 °C

**Q.** Which melting point does the source give for `CN1CCN(c2cccc3c2C[C@H](NC(=O)c2csc(-c4ccccc4)n2)CC3)CC1` [Example 46, (R)-N-[8-(4-Methylpiperazin-1-yl)-1,2,3,4-tetrahydro-2-naphthyl]-2-phenylthiazole-4-carboxamide] here?
**A.** 175 to 176 °C

**Q.** With `CN1CCN(c2cccc3c2C[C@H](NC(=O)c2csc(-c4ccncc4)n2)CC3)CC1` [Example 47, (R)-N-[8-(4-Methylpiperazin-1-yl)-1,2,3,4-tetrahydro-2-naphthyl]-2-(4-pyridyl)thiazole-4-carboxamide] as the molecule, how does the melting point read?
**A.** 187 to 188 °C

**Q.** For `CN1CCN(c2cccc3c2C[C@H](NC(=O)c2ccccc2)CC3)CC1` [Example 48, (R)-N-[8-(4-Methylpiperazin-1-yl)-1,2,3,4-tetrahydro-2-naphthyl]benzamide], which melting point is on record?
**A.** 195 to 196 °C

**Q.** With `COc1ccc(C(=O)N[C@@H]2CCc3cccc(N4CCN(C)CC4)c3C2)cc1` [Example 49, (R)-N-[8-(4-Methylpiperazin-1-yl)-1,2,3,4-tetrahydro-2-naphthyl]-4-methoxybenzamide] as the molecule, how does the melting point read?
**A.** 186 to 187 °C

**Q.** Which melting point does the source give for `CN1CCN(c2cccc3c2C[C@H](NC(=O)c2ccc(C#N)cc2)CC3)CC1` [Example 50, (R)-N-[8-(4-Methylpiperazin-1-yl)-1,2,3,4-tetrahydro-2-naphthyl]-4-cyanobenzamide] here?
**A.** 184 to 186 °C

**Q.** Which melting point does the source give for `O=C(N[C@@H]1CCc2cccc(N3CCNCC3)c2C1)c1ccc(N2CCOCC2)cc1` [Example 53, (R)-N-[8-(Piperazin-1-yl)-1,2,3,4-tetrahydro-2-naphthyl]-4-morpholinobenzamide] here?
**A.** 202 to 203 °C

**Q.** Which melting point does the source give for `CN1CCN(c2cccc3c2C[C@H](NC(=O)c2ccc(N4CCOCC4)cc2)CC3)CC1` [Example 54, (R)-N-[8-(4-Methylpiperazin-1-yl)-1,2,3,4-tetrahydro-2-naphthyl]-4-morpholinobenzamide] here?
**A.** 230 to 231 °C

**Q.** With `CN1CCN(c2cccc3c2C[C@@H](NC(=O)c2ccc(N4CCOCC4)cc2)CC3)CC1` [Example 55, (S)-N-[8-(4-Methylpiperazin-1-yl)-1,2,3,4-tetrahydro-2-naphthyl]-4-morpholinobenzamide] as the molecule, how does the melting point read?
**A.** 228 to 230 °C

**Q.** With `CCCN1CCN(c2cccc3c2C[C@H](NC(=O)c2ccc(N4CCOCC4)cc2)CC3)CC1` [Example 57, (R)-N-[8-(4-Propylpiperazin-1-yl)-1,2,3,4-tetrahydro-2-naphthyl]-4-morpholinobenzamide] as the molecule, how does the melting point read?
**A.** 183 to 185 °C

**Q.** With `Cc1cc(C(=O)N[C@@H]2CCc3cccc(N4CCN(C)CC4)c3C2)ccc1N1CCOCC1` [Example 61, (R)-N-[8-(4-Methylpiperazin-1-yl)-1,2,3,4-tetrahydro-2-naphthyl]-3-methyl-4-morpholinobenzamide] as the molecule, how does the melting point read?
**A.** 172 to 175 °C

**Q.** For `CN1CCN(c2cccc3c2C[C@H](NC(=O)c2ccc(C4CCCCC4)cc2)CC3)CC1` [Example 63, (R)-N-[8-(4-Methylpiperazin-1-yl)-1,2,3,4-tetrahydro-2-naphthyl]-4-cyclohexylbenzamide], which melting point is on record?
**A.** 224 to 226 °C

**Q.** Which melting point does the source give for `CN1CCN(c2cccc3c2C[C@H](NC(=O)c2ccc(C(F)(F)F)cc2)CC3)CC1` [Example 65, (R)-N-[8-(4-Methylpiperazin-1-yl)-1,2,3,4-tetrahydro-2-naphthyl]-4-trifluoromethylbenzamide] here?
**A.** 203 to 204 °C

**Q.** For `CN1CCN(c2cccc3c2C[C@@H](NC(=O)c2ccc(C(F)(F)F)cc2)CC3)CC1` [Example 66, (S)-N-[8-(4-Methylpiperazin-1-yl)-1,2,3,4-tetrahydro-2-naphthyl]-4-trifluoromethylbenzamide], which melting point is on record?
**A.** 202 to 204 °C

**Q.** With `CN1CCN(c2cccc3c2C[C@H](NC(=O)c2ccc(OS(C)(=O)=O)cc2)CC3)CC1` [Example 67, (R)-N-[8-(4-Methylpiperazin-1-yl)-1,2,3,4-tetrahydro-2-naphthyl]-4-methylsulfonyloxybenzamide] as the molecule, how does the melting point read?
**A.** 199 to 200 °C

**Q.** Which melting point does the source give for `CCc1ccc(C(=O)N[C@@H]2CCc3cccc(N4CCN(C)CC4)c3C2)cc1` [Example 69, (R)-N-[8-(4-Methylpiperazin-1-yl)-1,2,3,4-tetrahydro-2-naphthyl]-4-ethylbenzamide] here?
**A.** 177 to 178 °C

**Q.** For `CCCCOc1ccc(C(=O)N[C@@H]2CCc3cccc(N4CCN(C)CC4)c3C2)cc1` [Example 70, (R)-N-[8-(4-Methylpiperazin-1-yl)-1,2,3,4-tetrahydro-2-naphthyl]-4-butoxybenzamide], which melting point is on record?
**A.** 190 to 191 °C

**Q.** Which melting point does the source give for `CCCCOc1ccc(C(=O)N[C@H]2CCc3cccc(N4CCN(C)CC4)c3C2)cc1` [Example 71, (S)-N-[8-(4-Methylpiperazin-1-yl)-1,2,3,4-tetrahydro-2-naphthyl]-4-butoxybenzamide] here?
**A.** 190 to 192 °C

**Q.** With `CN1CCN(c2cccc3c2C[C@H](NC(=O)c2ccc(F)cc2)CC3)CC1` [Example 72, (R)-N-[8-(4-Methylpiperazin-1-yl)-1,2,3,4-tetrahydro-2-naphthyl]-4-fluorobenzamide] as the molecule, how does the melting point read?
**A.** 189 to 190 °C

**Q.** With `CN1CCN(c2cccc3c2C[C@H](NC(=O)c2ccc(Br)cc2)CC3)CC1` [Example 73, (R)-N-[8-(4-Methylpiperazin-1-yl)-1,2,3,4-tetrahydro-2-naphthyl]-4-bromobenzamide] as the molecule, how does the melting point read?
**A.** 200 to 201 °C

**Q.** For `CN1CCN(c2cccc3c2C[C@H](NC(=O)c2ccc(Cl)cc2)CC3)CC1` [Example 74, (R)-N-[8-(4-Methylpiperazin-1-yl)-1,2,3,4-tetrahydro-2-naphthyl]-4-chlorobenzamide], which melting point is on record?
**A.** 204 to 205 °C

**Q.** Which melting point does the source give for `CN1CCN(c2cccc3c2C[C@H](NC(=O)c2ccc(Cc4ccccc4)cc2)CC3)CC1` [Example 75, (R)-N-[8-(4-Methylpiperazin-1-yl)-1,2,3,4-tetrahydro-2-naphthyl]-4-benzylbenzamide] here?
**A.** 191 to 192 °C

**Q.** For `CN1CCN(c2cccc3c2C[C@H](NC(=O)c2ccc(C(=O)c4ccccc4)cc2)CC3)CC1` [Example 76, (R)-N-[8-(4-Methylpiperazin-1-yl)-1,2,3,4-tetrahydro-2-naphthyl]-4-benzoylbenzamide], which melting point is on record?
**A.** 194 to 195 °C

**Q.** With `CN1CCN(c2cccc3c2C[C@H](NC(=O)c2ccc(-n4cccc4)cc2)CC3)CC1` [Example 78, (R)-N-[8-(4-Methylpiperazin-1-yl)-1,2,3,4-tetrahydro-2-naphthyl]-4-(1H-pyrrol-1-yl)benzamide] as the molecule, how does the melting point read?
**A.** 245 to 247 °C

**Q.** With `CN1CCN(c2cccc3c2C[C@H](NC(=O)Cc2ccccc2)CC3)CC1` [Example 80, (R)-N-[8-(4-Methylpiperazin-1-yl)-1,2,3,4-tetrahydro-2-naphthyl]phenylacetamide] as the molecule, how does the melting point read?
**A.** 151 to 152 °C

**Q.** For `CN1CCN(c2cccc3c2C[C@H](NC(=O)CCCc2ccccc2)CC3)CC1` [Example 82, (R)-N-[8-(4-Methylpiperazin-1-yl)-1,2,3,4-tetrahydro-2-naphthyl]-4-phenylbutanamide], which melting point is on record?
**A.** 137 to 139 °C

**Q.** Which melting point does the source give for `CCc1ccc(-c2ccc(C(=O)N[C@@H]3CCc4cccc(N5CCN(C)CC5)c4C3)cc2)cc1` [Example 84, (R)-N-[8-(4-Methylpiperazin-1-yl)-1,2,3,4-tetrahydro-2-naphthyl]-4-(4-ethylphenyl)benzamide] here?
**A.** 234 to 235 °C

**Q.** Which melting point does the source give for `CN1CCN(c2cccc3c2C[C@H](NC(=O)c2ccc(-c4ccc(O)cc4)cc2)CC3)CC1` [Example 85, (R)-N-[8-(4-Methylpiperazin-1-yl)-1,2,3,4-tetrahydro-2-naphthyl]-4-(4-hydroxyphenyl)benzamide] here?
**A.** 261 to 262 °C

**Q.** With `CN1CCN(c2cccc3c2C[C@H](NC(=O)c2cccc(Oc4ccccc4)c2)CC3)CC1` [Example 87, (R)-N-[8-(4-Methylpiperazin-1-yl)-1,2,3,4-tetrahydro-2-naphthyl]-3-phenoxybenzamide] as the molecule, how does the melting point read?
**A.** 136 to 137 °C

**Q.** Which melting point does the source give for `CN1CCN(c2cccc3c2C[C@H](NC(=O)c2cccc(O)c2)CC3)CC1` [Example 88, (R)-N-[8-(4-Methylpiperazin-1-yl)-1,2,3,4-tetrahydro-2-naphthyl]-3-hydroxybenzamide] here?
**A.** 117 °C (dec.)

**Q.** Which melting point does the source give for `Cc1ccccc1C(=O)N[C@@H]1CCc2cccc(N3CCN(C)CC3)c2C1` [Example 90, (R)-N-[8-(4-Methylpiperazin-1-yl)-1,2,3,4-tetrahydro-2-naphthyl]-2-methylbenzamide] here?
**A.** 179 to 180 °C

**Q.** For `CN1CCN(c2cccc3c2C[C@H](NC(=O)c2ccccc2O)CC3)CC1` [Example 92, (R)-N-[8-(4-Methylpiperazin-1-yl)-1,2,3,4-tetrahydro-2-naphthyl]-2-hydroxybenzamide], which melting point is on record?
**A.** 87 °C (dec.)
